Article PMC11423305, “Structure-Based Design of CBP/EP300 Degraders: When Cooperativity Overcomes Affinity” (JACS Au, 2024)

What was measured:
Assay type in all cases: cell-based
[1] = system: MM1S cells; test: Cell viability (resazurin), MM1S; settings: Homo sapiens, MM1.S, 72 h, 3 days
Procedure: The primer sequences used were:
Gene Gene ID Forward Primer (5’-3’) Reverse primer (5’-3’)
myc NM_001354870.1 GTAGTGGAAAACCAGCC […]
crebbp NM_004380.3 TGTCACAGGGACAGGTGC […]
Cells were plated onto 96 well plates at the following densities in 90 μl volume: 3x104
LP1 cells/well or 5x10^3 LNCaP cells/well both plated same day as treatment, or 2x104
MM1S cells/well or 1.5x10^3 SH-SY5Y cells/well both plated day prior to treatment.
Compounds were added in 10 μl to give the stated concentrations with a final
concentration of 0.1 % DMSO. Following 3 days of compound treatment, resazurin
(Acros Organics, 189900010) was added at a f inal concentration of 86 μM and incubated
for the following times: MM1S 5 h, LP1 3 h, LNCaP 1 h 30 min, SH-SY5Y 6 h.
Fluorescence (excitation = 560 nm, emission = 590 nm) was measured using a
spectraMax M5 microplate reader (Molecular Devices) and cell viability was calculated
relative to DMSO treated cells on the same plate. Data was fitted using a four -parameter
dose-response curve in GraphPad Prism v. 9.5.1, where the top is fixed at 100 %. GI50
values were calculated as the concentration required to inhibit cell viability to 50 %
relative to DMSO treated cells after 3 days.
Sample digestion and clean up: Treated cells were washed in PBS and cell pellets
were then lysed in 4 % SDS/Tris-HCl, treated with High Intensity Focused Ultrasound […]

[2] = biological target: T1, EP300 (Homo sapiens, UniProt Q09472); test: Quantification of EP300 degradation by Western blotting in LP1 cells; settings: 5 μM compound, 16 h, Western blot
T1 construct: quantification of CBP and EP300 levels by Western blotting following 16 h treatment of LP1 cells; endogenous in cells; host or cells: LP1 cells
T1 sequence (Q09472 whole entry): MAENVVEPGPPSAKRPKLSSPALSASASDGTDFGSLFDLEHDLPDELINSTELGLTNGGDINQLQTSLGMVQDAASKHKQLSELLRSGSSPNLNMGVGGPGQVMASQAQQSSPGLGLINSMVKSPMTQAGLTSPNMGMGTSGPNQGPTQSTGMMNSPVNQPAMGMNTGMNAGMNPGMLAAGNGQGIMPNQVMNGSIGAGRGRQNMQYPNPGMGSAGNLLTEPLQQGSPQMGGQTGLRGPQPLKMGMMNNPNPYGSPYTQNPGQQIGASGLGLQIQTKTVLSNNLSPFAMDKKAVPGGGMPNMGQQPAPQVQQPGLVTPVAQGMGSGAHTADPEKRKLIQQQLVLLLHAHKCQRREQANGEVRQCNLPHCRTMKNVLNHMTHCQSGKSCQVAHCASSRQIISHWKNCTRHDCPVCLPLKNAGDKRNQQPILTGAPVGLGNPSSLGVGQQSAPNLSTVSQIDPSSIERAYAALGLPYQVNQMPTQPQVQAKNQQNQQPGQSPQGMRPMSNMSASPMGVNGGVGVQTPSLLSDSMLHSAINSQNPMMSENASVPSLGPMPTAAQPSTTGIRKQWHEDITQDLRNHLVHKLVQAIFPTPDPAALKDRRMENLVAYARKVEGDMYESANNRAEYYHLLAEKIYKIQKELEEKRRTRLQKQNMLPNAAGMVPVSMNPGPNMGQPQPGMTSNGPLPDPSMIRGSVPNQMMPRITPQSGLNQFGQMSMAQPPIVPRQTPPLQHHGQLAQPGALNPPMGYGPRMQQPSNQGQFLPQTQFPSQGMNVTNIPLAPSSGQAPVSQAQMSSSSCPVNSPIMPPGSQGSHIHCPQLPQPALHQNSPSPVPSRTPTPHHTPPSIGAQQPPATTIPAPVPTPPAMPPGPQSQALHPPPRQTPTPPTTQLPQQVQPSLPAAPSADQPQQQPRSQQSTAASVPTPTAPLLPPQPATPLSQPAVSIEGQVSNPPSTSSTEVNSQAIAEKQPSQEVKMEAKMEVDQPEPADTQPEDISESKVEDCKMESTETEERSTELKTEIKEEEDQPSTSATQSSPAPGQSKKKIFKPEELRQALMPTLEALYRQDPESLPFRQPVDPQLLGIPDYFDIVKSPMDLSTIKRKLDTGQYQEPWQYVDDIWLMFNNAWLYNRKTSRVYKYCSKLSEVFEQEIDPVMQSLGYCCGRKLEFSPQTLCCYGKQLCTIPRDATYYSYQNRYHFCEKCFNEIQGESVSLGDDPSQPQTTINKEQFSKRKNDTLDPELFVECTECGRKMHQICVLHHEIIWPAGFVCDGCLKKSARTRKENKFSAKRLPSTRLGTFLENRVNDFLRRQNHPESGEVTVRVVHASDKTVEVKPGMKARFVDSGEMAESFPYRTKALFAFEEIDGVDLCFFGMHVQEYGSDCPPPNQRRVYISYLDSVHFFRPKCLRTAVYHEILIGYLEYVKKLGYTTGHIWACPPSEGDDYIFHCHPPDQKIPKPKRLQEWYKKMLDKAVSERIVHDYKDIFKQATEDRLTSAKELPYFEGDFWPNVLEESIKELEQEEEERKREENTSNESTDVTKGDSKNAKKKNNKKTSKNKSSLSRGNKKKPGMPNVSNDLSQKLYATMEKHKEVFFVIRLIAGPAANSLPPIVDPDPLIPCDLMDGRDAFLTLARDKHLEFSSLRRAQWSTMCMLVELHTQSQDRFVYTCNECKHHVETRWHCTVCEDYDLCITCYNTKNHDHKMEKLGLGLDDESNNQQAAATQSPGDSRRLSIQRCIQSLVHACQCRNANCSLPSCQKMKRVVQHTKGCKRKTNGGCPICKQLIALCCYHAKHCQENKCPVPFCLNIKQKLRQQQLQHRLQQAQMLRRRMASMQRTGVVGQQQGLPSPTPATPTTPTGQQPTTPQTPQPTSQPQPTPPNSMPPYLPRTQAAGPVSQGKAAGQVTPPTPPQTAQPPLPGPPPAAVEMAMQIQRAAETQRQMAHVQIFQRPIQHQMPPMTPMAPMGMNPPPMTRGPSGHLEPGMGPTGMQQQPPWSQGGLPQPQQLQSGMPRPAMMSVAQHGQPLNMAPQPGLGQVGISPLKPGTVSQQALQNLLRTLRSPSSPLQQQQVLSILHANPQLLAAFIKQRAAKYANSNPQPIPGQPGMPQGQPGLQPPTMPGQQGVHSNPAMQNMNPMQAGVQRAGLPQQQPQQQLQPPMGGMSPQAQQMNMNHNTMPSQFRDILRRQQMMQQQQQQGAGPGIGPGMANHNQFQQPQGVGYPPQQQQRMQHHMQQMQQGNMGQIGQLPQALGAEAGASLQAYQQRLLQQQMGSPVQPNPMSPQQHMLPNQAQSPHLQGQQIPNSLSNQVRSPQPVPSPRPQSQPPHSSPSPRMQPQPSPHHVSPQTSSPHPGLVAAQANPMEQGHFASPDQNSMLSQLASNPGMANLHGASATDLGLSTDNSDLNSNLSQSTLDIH
Procedure: LP1 cells were cultured in DMEM (Gibco, 41966-029) supplemented with 15 % FBS (Sigma, F9665); MM1S and LNCaP cells in RPMI 1640 ATCC modification (Gibco, […]
DMEM/F12 (Gibco, 11320074) supplemented with 1 % non-essential amino acids […]
additionally supplemented with 1 % penicillin/streptomycin (Gibco, 15070-063), and cells maintained in a humidified incubator with 5 % CO2 at 37 °C. The identity of all lines (except for MM1S which were recently purchased from ATCC) was authenticated by STR profiling (performed by Microsynth).
Quantification of CBP/EP300 degradation by Western blotting
LP1 cells plated on 6 well plates were treated with the stated compounds at a final concentration of 0.1 % DMSO for the stated time. Cells were harvested on ice, washed in PBS and lysed in RIPA buffer (50 mM tris pH 7.5, 2 mM EDTA, 150 mM NaCl, 0.5 % sodium deoxycholate, 1 % Triton X100) supplemented with cOmplete ™ protease inhibitor cocktail (Roche). Protein concentrations were determined using the Pierce ™ BCA Protein Assay Kit (Thermo Scientific, 23227) and equal amounts were separated on 4-12 % ExpressPl us™ PAGE gels (GenScript, M41215). Proteins were transferred to PVDF membranes, the membranes were blocked with 5 % milk (Merk Millipore, 115363) in PBS-T and proteins were stained with the following antibodies at 4 °C overnight: CBP […]
BRD4 (Bethyl Laboratories, A301-985A50, diluted 1:2000) and vinculin (Invitrogen, 42H89L44, diluted 1:1000). For detection, membranes were incubated for 1 h at room temperature with HRP-conjugated secondary antibodies (Southern Biotech, anti-rabbit […]
SuperSignal™ West Pico PLUS Chemiluminescent Substrate (Thermo Scientific, 34580) and the Vilber Fusion-FX7 imager. Bands were quantified using ImageJ software and protein levels normalized to protein from DMSO treated cells run on the same membrane. For dose response curves, data was fitted using a four -parameter dose-response curve in GraphPad Prism v. 9.5.1, where the top is fixed at 100 %. The DC50 was defined as the PROTAC concentration resulting in 50 % remaining protein. […]

[3] = system: CBP/EP300; test: Western blot of CBP and EP300 levels in various cell lines; settings: 16 h, 1 μM

Cc1cc2c(NC(=O)c3cc(NC(=O)CCCCCCCCCCNc4cccc5c4C(=O)N(C4CCC(=O)NC4=O)C5=O)cc(-c4ccn(C)n4)c3)cccc2nn1 (stereo not drawn) [dCE-2]
GI50 [1]: 35 nM | % remaining EP300 [2]: 43% | CBP/EP300 degradation in MM1S, LNCaP and SH-SY5Y cells [3]: active degrader
